The values below come from US7569554B2, “Synergistic treatment of cancer using immunomers in conjunction with therapeutic agents” (Idera Pharmaceuticals, Inc., priority 2003, dated 2009).

Counter-ions that a name gives are not always drawn.

Series [1] deals with BALB/c mouse spleen cells. Put plainly: Cytokine secretion in BALB/c mouse spleen cell cultures (sandwich ELISA). The series is classed as cell-based. Conditions: for Induction of IL-12: FIG. 7A; for Induction of IL-12 / Induction of IL-6: compared with Oligo 1; for Induction of IL-6: FIG. 7B. How it is done: (§1) The secretion of IL-12 and IL-6 in vertebrate cells, preferably BALB/c mouse spleen cells or human PBMC, was measured by sandwich ELISA. The required reagents including cytokine antibodies and cytokine standards were purchased form PharMingen, San Diego, Calif. ELISA plates (Costar) were incubated with appropriate antibodies at 5 μg/mL in PBSN buffer (PBS/0.05% sodium azide, pH 9.6) overnight at 4° C. and then blocked with PBS/i % BSA at 37° C. for 30 minutes. Cell culture supernatants and cytokine standards were appropriately diluted with PBS/10% FBS, added to the plates in triplicate, and incubated at 25° C. for 2 hours. Plates were overlaid with 1 μg/mL appropriate biotinylated antibody and incubated at 25° C. for 1.5 hours. The plates were then washed extensively with PBS-T Buffer (PBS/0.05% Tween 20) and further incubated at 25° C. for 1.5 hours after adding streptavidin conjugated peroxidase (Sigma, St. Louis, Mo.). The plates were developed with Sure Blue™ (Kirkegaard and Perry) chromogenic reagent and the reaction was terminated by adding Stop Solution (Kirkegaard and Perry). The color change was measured on a Ceres 900 HDI Spectrophotometer (Bio-Tek Instruments).
(§2) In all instances, the levels of IL-12 and IL-6 in the cell culture supernatants were calculated from the standard curve constructed under the same experimental conditions for IL-112 and IL-6, respectively. The levels of IL-10, IFN-gamma and TNF-α in the cell culture supernatants were calculated from the standard curve constructed under the same experimental conditions for IL-10, IFN-gamma and TNF-α, respectively.
(ELISA stands for enzyme-linked immunosorbent assay.)

For series [2], the system named is vertebrate cells, preferably BALB/c mouse spleen cells or human PBMC. Put plainly: Immunostimulatory activity, IL-12/IL-6 secretion (Tables 9-12, cell culture not given). The class given is cell-based. As to the method: as §1, §2
The nature of series [3]: Body weight and clinical observation of PC3 tumor-bearing nude mice. The series is classed as in vivo, mouse. Conditions: compared with controls.
Series [4] has as its system human prostate cancer PC3 xenografts. Put plainly: Tumor mass, human prostate cancer PC3 xenografts in nude mice, with Gemcitabine. The class given is in vivo, mouse. Particulars: 160 mg/kg. How it is done: (§3) PC3 cells were cultured in 90% Ham's, F12K Medium with 10% Fetal Bovine Serum (FBS), in presence of 100 U/ml Penicillin and 100 μg/ml Streptomycin to establish the Human Prostate cancer model (PC3). Male athymic nude mice, 4-6 weeks old (Frederick Cancer Research and Development Center, Frederick, Md.), were accommodated for 6 days for environmental adjustment prior to the study. Cultured PC3 cells were harvested from the monolayer cultures, washed twice with Ham's, F12K Medium (10% FBS), resuspended in FBS-free Ham's, F12K Medium: Matrigel basement membrane matrix (Becton Dickinson Labware, Bedford, Mass.) (5:1; V/V), and injected subcutaneously (5×10^6 cells, total volume 0.2 ml) into the left inguinal area of each of the mice. The animals were monitored by general clinical observation, body weight, and tumor growth. Tumor growth was monitored by the measurement, with calipers, of two perpendicular diameters of the implant. Tumor mass (weight in grams) was calculated by the formula, 1/2a X b^2, where ‘a’ is the long diameter (cm) and ‘b’ is the short diameter (cm). When the mean tumor sizes reached ˜80 mg, the animals bearing human cancer xenografts were randomly divided into the treatment and control groups (5 animals/group). The control group received sterile physiological saline (0.9% NaCl) only. Immunomer 255 or 285, aseptically dissolved in physiological saline, was administered by subcutaneously injection at dose of 0.5 or 1.0 mg/kg/day, 3 doses/week. […] The detailed treatment schedule is shown as follows.

A further series relates to CD69+ and CD86+ cells. Put plainly: Activation of CD69+ and CD86+ cells in peripheral blood. The class given is in vivo, mouse. Conditions: docetaxel 30 mg/kg days 1 and 3, IMO 2 5 mg/kg days 1, 3, 5, 7; FIG. 24C.
For series [5], the system named is human prostate cancer PC3 xenografts. Put plainly: PC3 xenograft experiment repeated with taxotere. The class given is in vivo, mouse. The arrangement: unit: mg. Particulars: 15 mg/kg. How it is done:
as §3
Taxotere was administered on days 0 and 7. Immunomer 165 was administered 5 days per week. Immunomers 255 and 285 were administered on days 0, 2, 4, 7, 9 and 11.

In another series the test system is 4T1 breast tumor. Put plainly: 4T1 breast tumor in BALB/c mice, combination with doxorubicin. Particulars: IMO 2 1 mg/kg peritumoral, doxorubicin 30 mg/kg i.p; FIG. 24A. The class given is in vivo, mouse. How it is done: For the 4T1 tumor models, 5×10^5 cells/mouse in. 100 μl PBS were implanted into BALB/c mice in the lower right flank. On day 5 when the average tumor size reached 50 mm^2, the mice were given i.p injections of 30 mg/kg doxorubicin (Bedford lab, Bedford, Ohio) for three times on days 5, 6 and 7. IMO 2 (1 mg/kg) dissolved in 100 μl PBS was administrated by peritumoral injection at twice a week interval for a total of six times.

In the next series the test system is CT26.CL25 colon tumor. Put plainly: Subcutaneous CT26.CL25 colon tumor in BALB/c mice. The class given is in vivo, mouse. How it is done:
For subcutaneous solid tumor models, 10^6 CT26.CL25 cells/mouse or 5×10^5 B16.F0 cells/mouse in 100 μl of PBS were implanted into BALB/c or C57BL/6 mice in the lower right flank. The tumor size reached to 50 to 200 mg on day 6 for CT26.CL25 and on day 8 for B16.F0 post tumor inoculation. The tumor bearing mice were then treated with peritumoral injection of IMO compounds or non-CpG DNA control at a dose of 1 mg/kg every other day for 10 times. Tumor growth was recorded with the use of calipers, by measuring the long and short diameters of the tumor. Tumor volumes were measured with a caliper and the formula (0.5×length×width^2) was applied to determine tumor growth kinetics.
The antitumor activity of IMO compounds in a murine colon carcinoma CT26.CL25 model was evaluated. BALB/c mice bearing CT26.CL25 subcutaneous solid tumors were treated with 1 mg/kg IMO compounds by peritumoral administration every other day for 10 times starting on day 6 following tumor inoculation.

Another series has as its system BALB/c mice. Put plainly: In vivo serum cytokine induction. Also on record: species or system mouse. Particulars: for IL-6 (serum) / IL-12 (serum): 10 mg/kg, 4 hrs. How it is done:
To assess serum cytokine levels, BALB/c mice (n=5) were injected intraperitoneally (i.p), subcutaneously (s.c) or intramuscularly (i.m) with IMO compounds at 10 mg/kg (single dose). Sera was collected by retro-orbital bleeding at 4 hrs of IMO administration and determined IL-112 and IL-6 by sandwich ELISA. Cytokine antibodies and standards were purchased from PharMingen (San Diego, Calif.).
To evaluate the immunopharmacological effects in vivo, IMO compounds, CpG immunomers, and non-CpG oligos were administered to BALB/c mice i.p, s.c or i.m at a dose of 10 mg/kg and their serum was evaluated for IL-12 and IL-6 after 4 hrs.

The nature of series [6]: In vitro cytokine induction profiles of IMO compounds (FIG. 16). The series is classed as cell-based.
Series [7] has as its system Her-2 positive BT-474 cells. Put plainly: Lysis of BT-474 cells by IMO-activated human PBMCs in the presence of Herceptin. The series is classed as cell-based. Particulars: FIG. 26.

Consider “3′-TTCCAGCTCGCAAGAG-5′-5′-GAGAACGCTCGACCTT-3′ [Immunomer 3]”, for which, in series [1], the “Induction of IL-12” value is “equal or weaker ability to produce immune stimulation compared with oligo 1” and the “Induction of IL-6” value is on record as “equal or weaker ability to induce immune stimulation compared with Oligo 1”.

For “5-GAGAACGCTCGACCTT-3′-3′-TTCCAGCTCGCAAGAG-5′ [Immunomer 2]”, in [1], the “Induction of IL-12” value is listed as “stronger inducer of IL-12 than monomeric Oligo 1” and the “Induction of IL-6” value is reported as “stronger inducer of IL-6 than monomeric Oligo 1”. In addition, the “Elevation of IL-12, IL-6 and IL-10” value in [1] (FIGS. 7A-C) is “elevates IL-12 and IL-6, but not IL-10 at lower concentrations than Oligonucleotides 1 or 3”.

For “5′-CTATCTGACGTTCTCTGT-3′ (DNA, all phosphorothioate, methylation of C not given here) [Oligonucleotide 4]”, the IL-12 is 225 pg/mL in series [1] (0.3 μg/mL, Table 13); 257 pg/mL in [2] (0.3 μg/mL, Table 12); 1176 pg/mL in series [2] (3 μg/mL, Table 11). Further, the IL-6 is 1462 pg/mL in series [1] (1 μg/mL, Table 13); 635 pg/mL in series [2] (1 μg/mL, Table 12); 1892 pg/mL in series [2] (3 μg/mL, Table 11).

On to `Nc1ccn([C@@H]2O[C@H](CO)[C@@H](O)C2(F)F)c(=O)n1` [Gemcitabine, Gemcitabine HCl], for which the Body weight gains result in series [3] is “body weight loss in the first week and recovered in a week afterwards”. The Tumor mass in series [4] (Day 0) was 82.6 mg; in [4] (Day 3), 73.0 mg; in [4] (Day 9), 35.7 mg; in [4] (Day 12), 36.2 mg; in series [4] (Day 15) it was 31.7 mg; in series [4] (Day 18), 40.8 mg. Also, the Tumor mass is listed as 56.5 mg in series [4] (Day 24); 68.0 mg in series [4] (Day 27); 89.4 mg in series [4] (Day 30); 106.5 mg in series [4] (Day 33); 144.2 mg in [4] (Day 36); 175.3 mg in series [4] (Day 39). Besides, the Tumor mass was determined as 269.1 mg in [4] (Day 42), 383.8 mg in [4] (Day 45) and 538.6 mg in series [4] (Day 48).

With `CC(=O)O[C@@]12CO[C@@H]1C[C@H](O)[C@@]1(C)C(=O)[C@H](O)C3=C(C)[C@@H](OC(=O)[C@H](O)[C@@H](NC(=O)OC(C)(C)C)c4ccccc4)C[C@@](O)([C@@H](OC(=O)c4ccccc4)[C@H]21)C3(C)C` [Taxotere, Docetaxel], the “Percentage of CD69+ and CD86+ cells” value in the series on CD69+ and CD86+ cells was “did not inhibit such activations”. Also, the “In vivo anti-cancer activity (tumor mass)” value amounted to 56.64 in series [5] (Day 0.00); 128.51 in [5] (Day 3.00); 320.63 in series [5] (Day 6.00); 598.69 in series [5] (Day 9.00); 924.91 in series [5] (Day 12.00); 1589.08 in [5] (Day 15.00).

As to `COc1cccc2c1C(=O)c1c(O)c3c(c(O)c1C2=O)C[C@@](O)(C(=O)CO)C[C@@H]3O[C@H]1C[C@H](N)[C@H](O)[C@H](C)O1` [doxorubicin, reference compound], the “Inhibition of 4T1 tumor growth” value in the series on 4T1 breast tumor was “strong inhibition”.

Take “IMO 1: IMO compound of FIG. 15, first in order (SEQ ID NO 13) (DNA TCTGACGTTCT; listed as DNA, chemistry not given here)”: in the series with CT26.CL25 colon tumor (day 24, compared with non-CpG DNA treated mice, 1 mg/kg peritumoral), the “Average tumor growth inhibition” value is reported as 72%. The “IL-6 (serum)” value with BALB/c mice (Intramuscular (i.m)) was determined as 5.8 ± 0.5 ng/mL; in the series with BALB/c mice (Intraperitoneal (i.p)) it was 5.9 ± 0.2 ng/mL; with BALB/c mice (Subcutaneous (s.c)), 4.3 ± 0.3 ng/mL. The “IL-12 (serum)” value with BALB/c mice (Intramuscular (i.m)) was found to be 109.3 ± 25 ng/mL; in the series with BALB/c mice (Intraperitoneal (i.p)) it was 59.0 ± 11 ng/mL; in the series with BALB/c mice (Subcutaneous (s.c)), 98.3 ± 15 ng/mL. Moreover, the “IL-12 secretion in vitro” value in [6] was “strong IL-12 secretion”.

Take “IMO 3: IMO compound of FIG. 15 (SEQ ID NO 18) containing a human-specific motif (DNA TCTGTCNTTCT; listed as DNA, further chemistry not given here)”: the “Lysis of BT-474 cells” value in [7] is given as “induces lysis of Her-2 positive BT-474 cells in the presence of Herceptin”. Further, in the series with CT26.CL25 colon tumor (FIG. 25A), the Antitumor activity result is “potent antitumor activity”. Also, the “Serum IL-12 secretion in mice” value with BALB/c mice (4 hr after administration, FIG. 25B) is reported as “induced IL-12 secretion”.
